From PubChem BioAssay (NCI)
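Each compound was tested at five concentrations against cells in 96-well plates for 48 hours. GI50 marks 50% less growth. TGI: concentration producing complete growth inhibition.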

What was measured:
Assay in all cases: NCI-60 cell line screen, 48 h
A498 renal = test system: A498 renal
HCT-15 colon = test system: HCT-15 colon
MCF7 breast = test system: MCF7 breast
NCI-H522 lung = test system: NCI-H522 lung
SK-MEL-5 melanoma = test system: SK-MEL-5 melanoma
SW-620 colon = test system: SW-620 colon
U251 CNS = test system: U251 CNS
EKVX NSCLC = test system: EKVX NSCLC
NCI-H23 lung = test system: NCI-H23 lung
TK-10 renal = test system: TK-10 renal

Compound | GI50 (A498 renal) | TGI (A498 renal) | GI50 (HCT-15 colon) | TGI (HCT-15 colon) | GI50 (MCF7 breast) | TGI (MCF7 breast) | GI50 (NCI-H522 lung) | TGI (NCI-H522 lung) | GI50 (SK-MEL-5 melanoma) | TGI (SK-MEL-5 melanoma) | GI50 (SW-620 colon) | TGI (SW-620 colon) | GI50 (U251 CNS) | TGI (U251 CNS) | TGI (EKVX NSCLC) | TGI (NCI-H23 lung) | TGI (TK-10 renal) | GI50 (NCI-H23 lung) | GI50 (TK-10 renal) | GI50 (EKVX NSCLC)
CC1(C)N=C(N)N=C(N)N1c1ccc(OCCCCNC(=O)Nc2cccc(S(=O)(=O)F)c2)c(Cl)c1 | 14.5 µM | > 100 µM | 10.6 µM | > 100 µM | 2.09 µM | > 100 µM | 1.83 µM | 69.7 µM | 1.11 µM | 23.7 µM | 0.657 µM | > 100 µM | 0.674 µM | > 100 µM |  |  |  |  |  | 
O=C(O)C1=C(C(=O)O)Oc2ccccc2O1 |  | > 100 µM |  | > 100 µM |  |  |  | > 100 µM |  |  |  | > 100 µM |  | > 100 µM | > 100 µM | > 100 µM | > 100 µM |  |  | 
CN(C)CCS(=O)(=O)Nc1cc(-c2ccc3ncnc(Nc4ccc(F)c(Cl)c4)c3c2)cnc1Cl | 0.336 µM | 1.17 µM | 1.11 µM | 4.36 µM | 0.292 µM | > 100 µM |  |  | 0.208 µM | 0.622 µM | 1.2 µM | > 38 µM | 0.85 µM | 2.91 µM |  | > 100 µM | 1.31 µM | 0.577 µM | 0.188 µM | 
CCOC(=O)C1=CSC2=NC3=C(CCC/C3=C\c3cc(OC)c(OC)c(OC)c3)C(c3cc(OC)c(OC)c(OC)c3)N12 (configuration not stated) |  |  |  |  | 2.66 µM | > 100 µM |  |  |  |  | 1.54 µM | > 100 µM |  |  | > 100 µM |  | > 100 µM |  | 4.33 µM | > 100 µM
CC1=C(C(=O)CC(=O)C(=O)Nc2ccccc2C)Sc2ccccc2N1 |  | > 100 µM |  | > 100 µM |  |  |  | > 100 µM |  | > 100 µM |  | > 54.1 µM |  | > 100 µM | > 100 µM | > 100 µM | > 100 µM |  |  | 
CC(C)c1cc(C(C)C)c(Cl)c(Cl)c1O (tested in a mixture with another compound) |  |  |  | > 100 µM |  | 54.6 µM |  | 35.8 µM |  | 24.3 µM |  | 82.1 µM |  | > 100 µM | 53.7 µM | > 100 µM | 54.3 µM |  |  | 
NNC(=O)N/N=C1\CNC(=O)C(=O)C1c1nc2ccccc2s1 (configuration not stated) |  | > 100 µM |  | > 100 µM |  |  |  | > 100 µM |  | > 100 µM |  | > 100 µM |  | > 100 µM | > 100 µM | > 100 µM | > 100 µM |  |  | 
O=S(=O)(Cc1ccccc1)SCc1ccccc1 |  | 73.6 µM |  | 40.2 µM |  |  |  | 25.2 µM |  | 48.5 µM |  | 15.5 µM |  | 66.2 µM | > 100 µM | 52.7 µM | 99.2 µM |  |  | 
O=C(CN(/C=C/C(=O)C(F)(F)F)c1ccccc1)c1ccc(F)cc1 |  |  | 25.4 µM | > 100 µM | 23.2 µM | 59.3 µM | 19.2 µM | 46.5 µM | 1.34 µM | 12.3 µM | 19.9 µM | 42.9 µM | 22.9 µM | 69.8 µM | > 100 µM | > 100 µM | > 100 µM | 29.5 µM | 33 µM | 49.9 µM
O=CC(O)C(O)C(OC1OC(CO)C(O)C(O)C1O)C(O)CO (configuration not stated) (tested in a mixture with another compound) |  | > 100 µM |  | 54 µM |  | > 100 µM |  | > 100 µM |  | > 100 µM |  | > 100 µM |  | > 100 µM |  | > 100 µM | > 100 µM |  |  | 
Nc1c(-c2nc3ccccc3s2)[n+]([O-])c2ccccc2[n+]1[O-] |  | > 100 µM |  |  |  |  |  | 45.8 µM |  | 40.4 µM |  | > 100 µM |  | > 100 µM | > 100 µM | 51.4 µM | > 100 µM |  |  | 
O=C1c2ccoc2C(=O)c2oc(=O)ccc21 |  | > 85.9 µM |  | 24.9 µM |  |  |  | 4.18 µM |  | 3.15 µM |  | 11.5 µM |  | 20.8 µM | 35.2 µM | 4.01 µM | > 59.1 µM |  |  | 
Cc1c(C)c2ccc(OC(C)C(=O)O)cc2oc1=O (configuration not stated) |  | > 100 µM |  |  |  |  |  | > 100 µM |  | > 100 µM |  | > 100 µM |  | > 100 µM | > 100 µM | > 100 µM | > 100 µM |  |  | 
Cn1cc(NC(=O)c2cc(NC(=O)CCCCCCCC(=O)Nc3cc(C(=O)Nc4cc(C(=O)NCCC(=N)N)n(C)c4)n(C)c3)cn2C)cc1C(=O)NCCC(=N)N |  | 56.7 µM |  | > 100 µM |  |  |  |  |  | 22.3 µM |  | > 100 µM |  | 44.6 µM | 68.2 µM | 33.7 µM | 36.7 µM |  |  | 
CN1CC[C@]23c4c5ccc(O)c4OC2c2[nH]ncc2C[C@H]3[C@H]1C5 (some centres not stated) |  |  |  | > 100 µM |  | > 100 µM |  | > 100 µM |  | > 100 µM |  |  |  | > 100 µM | > 100 µM | > 100 µM | > 100 µM |  |  | 
Cc1nn2c(-c3nc4cc(Cl)c(Cl)cc4[nH]3)c(-c3ccc(F)cc3)nc2s1 | 2.09 µM | 8.37 µM | > 100 µM | > 100 µM | 13.6 µM | > 100 µM | 6.35 µM | 55.8 µM | 5.86 µM | > 100 µM | 10.2 µM | > 100 µM | 2.56 µM | 10.5 µM |  | > 61.4 µM | 4.69 µM | 21.7 µM | 2.19 µM | 
Nc1ncnc2sc(Nc3ccccc3)nc12 |  |  |  | > 100 µM |  |  |  | > 100 µM |  |  |  | > 100 µM |  | > 100 µM |  | > 100 µM | > 100 µM |  |  | 
CCOc1ccc(/C=C2/C(=O)N=C(N)N=C2N)cc1OCC |  |  |  | > 100 µM |  |  |  | > 100 µM |  | > 100 µM |  | > 100 µM |  | > 100 µM | > 100 µM | > 100 µM | > 100 µM |  |  | 
Nc1nc(-c2ccccc2)cc(-c2cc(Cl)ccc2O)n1 |  | > 100 µM |  | > 100 µM |  |  |  | 99.7 µM |  |  |  | > 100 µM |  | > 100 µM | > 100 µM | > 100 µM | > 100 µM |  |  | 
Cc1cc(OC(=O)c2c(C)cc(OC(=O)c3c(C)cc(O)cc3O)cc2O)cc(O)c1C(=O)O |  | > 100 µM |  |  |  |  |  | > 100 µM |  | > 100 µM |  | > 100 µM |  | > 100 µM | > 100 µM | > 100 µM | > 100 µM |  |  | 
O=C(Nc1ccc(Cl)c(Cl)c1)C1C(=O)N(c2ccc(Cl)c(Cl)c2)C(=O)/C1=N\O (configuration not stated) |  | > 100 µM |  | > 100 µM |  |  |  | > 100 µM |  | > 100 µM |  | > 100 µM |  | > 100 µM | > 100 µM | > 100 µM | > 100 µM |  |  | 
